Reference: ChEMBL document CHEMBL3885881, “DrugMatrix”

Species on record: Rattus norvegicus
Test: DrugMatrix - Regimen: Daily Repeat
Format: toxicity, organism-based, Sprague-Dawley
Parameters: regimen Daily Repeat, gender Male, age 6-8 weeks
Conditions: in vivo, po, 1200 mg/kg, route oral GAVAGE, dose level High, vehicle 100 % WATER; for ALANINE AMINOTRANSFERASE / ALBUMIN / ALKALINE PHOSPHATASE / ASPARTATE AMINOTRANSFERASE / BLOOD UREA NITROGEN / CARBON DIOXIDE / CHLORIDE / CHOLESTEROL / CREATINE PHOSPHOKINASE / CREATININE / GLUCOSE / LACTATE DEHYDROGENASE / LIPASE / PHOSPHORUS / POTASSIUM / SODIUM / TOTAL BILIRUBIN / TOTAL PROTEIN / URIC ACID: tissue Plasma
[1] = 120 h, tissue Blood, time 5 day

COCCc1ccc(OCC(O)CNC(C)C)cc1 (configuration not stated) [METOPROLOL]
ABSOLUTE SEGMENTED NEUTROPHIL (72 h, tissue Blood, time 3 day): 909.67 CELLS/uL | BASOPHIL (72 h, tissue Blood, time 3 day): 0% | EOSINOPHIL (72 h, tissue Blood, time 3 day): 2.33% | ERYTHROCYTE COUNT (72 h, tissue Blood, time 3 day): 5.22 x10E6/uL | HEMATOCRIT (72 h, tissue Blood, time 3 day): 33.73% | HEMOGLOBIN (72 h, tissue Blood, time 3 day): 12.8 G/DL | LEUKOCYTE COUNT (72 h, tissue Blood, time 3 day): 12.47 x10E3/uL | LYMPHOCYTE (72 h, tissue Blood, time 3 day): 90.33% | MEAN CORPUSCULAR HEMOGLOBIN (72 h, tissue Blood, time 3 day): 24.57 pg | MEAN CORPUSCULAR HEMOGLOBIN CONCENTRATION (72 h, tissue Blood, time 3 day): 37.93 G/DL | MEAN CORPUSCULAR VOLUME (72 h, tissue Blood, time 3 day): 64.7 fL | MONOCYTE (72 h, tissue Blood, time 3 day): 0% | NEUTROPHIL (72 h, tissue Blood, time 3 day): 7.33% | NUCLEATED RED BLOOD CELLS (72 h, tissue Blood, time 3 day): 0 /100WBC | PLATELET COUNT (72 h, tissue Blood, time 3 day): 1290.67 x10E3/uL | ALANINE AMINOTRANSFERASE (72 h, time 3 day): 53.67 u/L | ALBUMIN (72 h, time 3 day): 3.87 G/DL | ALKALINE PHOSPHATASE (72 h, time 3 day): 394 u/L | ASPARTATE AMINOTRANSFERASE (72 h, time 3 day): 71 u/L | BLOOD UREA NITROGEN (72 h, time 3 day): 17.33 mg/dL | CARBON DIOXIDE (72 h, time 3 day): 22.33 mmol/L | CHLORIDE (72 h, time 3 day): 107.33 MEQ/L | CHOLESTEROL (72 h, time 3 day): 61.67 mg/dL | CREATINE PHOSPHOKINASE (72 h, time 3 day): 205.67 u/L | CREATININE (72 h, time 3 day): 0.14 mg/dL | GLUCOSE (72 h, time 3 day): 163.67 mg/dL | LACTATE DEHYDROGENASE (72 h, time 3 day): 229 u/L | LIPASE (72 h, time 3 day): 8 u/L | PHOSPHORUS (72 h, time 3 day): 13.37 mg/dL | POTASSIUM (72 h, time 3 day): 7.13 MEQ/L | SODIUM (72 h, time 3 day): 143.6 MEQ/L | TOTAL BILIRUBIN (72 h, time 3 day): 0.2 mg/dL | TOTAL PROTEIN (72 h, time 3 day): 5.57 G/DL | URIC ACID (72 h, time 3 day): 1.77 mg/dL | ABSOLUTE BASOPHIL [1]: 0 CELLS/uL | ABSOLUTE EOSINOPHIL [1]: 118 CELLS/uL | ABSOLUTE LYMPHOCYTE [1]: 10653.33 CELLS/uL | ABSOLUTE MONOCYTE [1]: 40.33 CELLS/uL | ABSOLUTE SEGMENTED NEUTROPHIL [1]: 1388.33 CELLS/uL | BASOPHIL [1]: 0% | EOSINOPHIL [1]: 1% | ERYTHROCYTE COUNT [1]: 5.92 x10E6/uL | HEMATOCRIT [1]: 35.9% | HEMOGLOBIN [1]: 13.47 G/DL | LEUKOCYTE COUNT [1]: 12.2 x10E3/uL | LYMPHOCYTE [1]: 87.33% | MEAN CORPUSCULAR HEMOGLOBIN [1]: 22.77 pg | MEAN CORPUSCULAR HEMOGLOBIN CONCENTRATION [1]: 37.5 G/DL | MEAN CORPUSCULAR VOLUME [1]: 60.63 fL | MONOCYTE [1]: 0.33% | NEUTROPHIL [1]: 11.33% | NUCLEATED RED BLOOD CELLS [1]: 0 /100WBC | PLATELET COUNT [1]: 1269 x10E3/uL | ALANINE AMINOTRANSFERASE (120 h, time 5 day): 41.67 u/L | ALBUMIN (120 h, time 5 day): 4 G/DL | ALKALINE PHOSPHATASE (120 h, time 5 day): 311.67 u/L | ASPARTATE AMINOTRANSFERASE (120 h, time 5 day): 79 u/L | BLOOD UREA NITROGEN (120 h, time 5 day): 16 mg/dL | CARBON DIOXIDE (120 h, time 5 day): 25 mmol/L | CHLORIDE (120 h, time 5 day): 102.33 MEQ/L | CHOLESTEROL (120 h, time 5 day): 50.67 mg/dL | CREATINE PHOSPHOKINASE (120 h, time 5 day): 364.33 u/L | CREATININE (120 h, time 5 day): 0.21 mg/dL | GLUCOSE (120 h, time 5 day): 161.33 mg/dL | LACTATE DEHYDROGENASE (120 h, time 5 day): 430 u/L | LIPASE (120 h, time 5 day): 8 u/L | PHOSPHORUS (120 h, time 5 day): 11.67 mg/dL | POTASSIUM (120 h, time 5 day): 6.24 MEQ/L | SODIUM (120 h, time 5 day): 141.53 MEQ/L | TOTAL BILIRUBIN (120 h, time 5 day): 0.2 mg/dL | TOTAL PROTEIN (120 h, time 5 day): 5.6 G/DL | URIC ACID (120 h, time 5 day): 1.73 mg/dL
